This passage reports IC50 results from patent US9926281B2 (priority 2014, dated 2018).

For one assay, the target named is human TACE (Homo sapiens (Human), UniProt P78536). To be noted: read-out: TACE potency IC50.
For a further assay, the target named is human ADAMTS-5 (Homo sapiens (Human), UniProt Q9UNA0). To be noted: read-out: hADAMTS-5 potency IC50.
human ADAMTS-5, sequence (Q9UNA0 262-930): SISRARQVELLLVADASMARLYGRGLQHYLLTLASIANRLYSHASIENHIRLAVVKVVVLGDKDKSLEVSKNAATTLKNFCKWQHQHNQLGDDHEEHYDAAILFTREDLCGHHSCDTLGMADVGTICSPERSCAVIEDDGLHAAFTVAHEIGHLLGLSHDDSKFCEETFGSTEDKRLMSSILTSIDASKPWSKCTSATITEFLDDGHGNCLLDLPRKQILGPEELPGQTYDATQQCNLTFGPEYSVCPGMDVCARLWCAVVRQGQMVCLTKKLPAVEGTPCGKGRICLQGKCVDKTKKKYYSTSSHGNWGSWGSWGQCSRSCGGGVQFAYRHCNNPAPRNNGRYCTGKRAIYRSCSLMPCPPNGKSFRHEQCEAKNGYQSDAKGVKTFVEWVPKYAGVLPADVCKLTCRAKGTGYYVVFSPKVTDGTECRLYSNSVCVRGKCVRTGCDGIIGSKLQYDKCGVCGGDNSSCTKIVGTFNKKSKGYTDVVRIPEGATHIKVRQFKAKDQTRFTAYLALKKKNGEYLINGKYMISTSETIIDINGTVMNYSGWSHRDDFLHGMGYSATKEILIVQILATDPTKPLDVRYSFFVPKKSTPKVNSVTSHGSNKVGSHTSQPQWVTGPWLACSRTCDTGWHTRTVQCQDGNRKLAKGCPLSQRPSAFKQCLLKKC

human TACE, sequence (P78536 whole entry, looked up, change not shown): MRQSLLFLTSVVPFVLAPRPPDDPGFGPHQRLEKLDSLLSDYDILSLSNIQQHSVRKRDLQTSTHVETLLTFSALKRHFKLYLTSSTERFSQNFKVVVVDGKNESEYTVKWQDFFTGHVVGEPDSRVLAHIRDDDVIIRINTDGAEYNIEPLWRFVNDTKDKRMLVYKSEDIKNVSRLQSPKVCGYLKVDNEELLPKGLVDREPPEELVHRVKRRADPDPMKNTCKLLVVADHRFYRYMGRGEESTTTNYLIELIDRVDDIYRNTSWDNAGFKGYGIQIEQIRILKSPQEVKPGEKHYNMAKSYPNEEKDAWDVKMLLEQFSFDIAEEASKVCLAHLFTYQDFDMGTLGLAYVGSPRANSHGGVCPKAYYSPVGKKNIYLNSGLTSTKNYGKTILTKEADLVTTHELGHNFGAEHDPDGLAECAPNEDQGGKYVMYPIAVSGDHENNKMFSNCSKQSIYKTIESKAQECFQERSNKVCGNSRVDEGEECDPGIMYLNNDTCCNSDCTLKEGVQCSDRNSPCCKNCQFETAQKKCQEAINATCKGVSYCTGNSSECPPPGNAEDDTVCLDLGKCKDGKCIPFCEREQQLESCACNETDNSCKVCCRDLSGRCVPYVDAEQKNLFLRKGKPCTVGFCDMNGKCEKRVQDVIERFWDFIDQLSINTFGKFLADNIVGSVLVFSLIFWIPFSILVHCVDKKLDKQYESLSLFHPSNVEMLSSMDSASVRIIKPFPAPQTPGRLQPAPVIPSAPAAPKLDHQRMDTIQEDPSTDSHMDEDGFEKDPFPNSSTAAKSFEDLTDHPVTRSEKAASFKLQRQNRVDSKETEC
Procedure for human ADAMTS-5: Finally, the fluorescence is read on the Envision (Perkin Elmer) after an incubation of 90 min at 37° C.

In the case of `Cc1cc(C2(CCC(=O)N3CCN(c4cc(F)cc(F)c4)[C@@H](C)C3)NC(=O)NC2=O)no1` (stereo partly drawn) [compound 387, 5-[3-[(3S)-4-(3,5-difluorophenyl)-3-methyl-piperazin-1-yl]-3-oxo-propyl]-5-(5-methylisoxazol-3-yl)imidazolidine-2,4-dione], the values for the half-maximal inhibitory concentration (IC50) on human TACE and at human ADAMTS-5 were over 4 µM and 0.037 µM, respectively.
In the case of `CNc1cc(N2CCN(C(=O)CC[C@@]3(C)NC(=O)NC3=O)C[C@@H]2C)ccc1Cl` [compound 392, (5R)-5-[3-[(3S)-4-[4-chloro-3-(methylamino)phenyl]-3-methyl-piperazin-1-yl]-3-oxo-propyl]-5-methyl-imidazolidine-2,4-dione], the half-inhibitory concentration (IC50) was over 20 µM at human TACE and 0.567 µM at human ADAMTS-5.
Consider `C[C@H]1CN(C(=O)CCC2(c3ccn(C)n3)NC(=O)NC2=O)CCN1c1cc(F)cc(F)c1` (stereo partly drawn) [compound 394, 5-[3-[(3S)-4-(3,5-difluorophenyl)-3-methyl-piperazin-1-yl]-3-oxo-propyl]-5-(1-methylpyrazol-3-yl)imidazolidine-2,4-dione], for which the 50% inhibitory concentration (IC50) on human TACE was over 20 µM; at human ADAMTS-5 it was 0.049 µM.
On to `Cc1nc(C2(CCC(=O)N3CCN(c4cc(F)cc(F)c4)[C@@H](C)C3)NC(=O)NC2=O)co1` (stereo partly drawn) [compound 395, 5-[3-[(3S)-4-(3,5-difluorophenyl)-3-methyl-piperazin-1-yl]-3-oxo-propyl]-5-(2-methyloxazol-4-yl)imidazolidine-2,4-dione], for which the IC50 on human TACE was over 20 µM; on human ADAMTS-5, 0.039 µM.
In the case of `Cc1cc(N2CCN(C(=O)CC[C@@]3(C)NC(=O)NC3=O)C[C@@H]2C)cc(C)c1Cl` [compound 400, (5R)-5-[3-[(3S)-4-(4-chloro-3,5-dimethyl-phenyl)-3-methyl-piperazin-1-yl]-3-oxo-propyl]-5-methyl-imidazolidine-2,4-dione], the IC50 turned out to be 2.93 µM at human TACE and 0.383 µM on human ADAMTS-5.
Consider `CC(CC1NC(=O)NC1=O)C(=O)N1CCN(c2ccc(F)c(Cl)c2)[C@@H](C)C1` (stereo partly drawn) [compound 441, 5-(3-((S)-4-(3-chloro-4-fluorophenyl)-3-methylpiperazin-1-yl)-2-methyl-3-oxopropyl)imidazolidine-2,4-dione], for which the half-maximal inhibitory concentration (IC50) at human TACE was over 20 µM; at human ADAMTS-5, 0.059 µM.
Consider `CC(CC1(c2ccccn2)NC(=O)NC1=O)C(=O)N1CCN(c2cc(Cl)cc(Cl)c2)[C@@H](C)C1` (stereo partly drawn) [compound 442, 5-(3-((S)-4-(3,5-dichlorophenyl)-3-methylpiperazin-1-yl)-2-methyl-3-oxopropyl)-5-(pyridin-2-yl)imidazolidine-2,4-dione], for which the results for the half-maximal inhibitory concentration (IC50) on human TACE and at human ADAMTS-5 were 0.789 µM and 0.024 µM, respectively.
As to `CCC1(CC(C)C(=O)N2CCN(c3ccc(F)c(Cl)c3)[C@@H](C)C2)NC(=O)NC1=O` (stereo partly drawn) [compound 444, 5-(3-((S)-4-(3-chloro-4-fluorophenyl)-3-methylpiperazin-1-yl)-2-methyl-3-oxopropyl)-5-ethylimidazolidine-2,4-dione], the 50% inhibitory concentration (IC50) is over 4 µM on human TACE and 0.025 µM on human ADAMTS-5.
With `CC(CC1(c2ccccn2)NC(=O)NC1=O)C(=O)N1CCN(c2cccc(Cl)c2)[C@@H](C)C1` (stereo partly drawn) [compound 446, 5-(3-((S)-4-(3-chlorophenyl)-3-methylpiperazin-1-yl)-2-methyl-3-oxopropyl)-5-(pyridin-2-yl)imidazolidine-2,4-dione], the half-inhibitory concentration (IC50) was found to be 0.84 µM at human TACE and 0.019 µM on human ADAMTS-5.
The corresponding values for `Cc1cccc(C2(CCC(=O)N3CCN(c4ccc(F)c(Cl)c4)[C@@H](C)C3)NC(=O)NC2=O)n1` (stereo partly drawn) [compound 447, 5-[3-[(3S)-4-(3-chloro-4-fluoro-phenyl)-3-methyl-piperazin-1-yl]-3-oxo-propyl]-5-(6-methyl-2-pyridyl)imidazolidine-2,4-dione] are 3.62 µM and 0.056 µM.
As for `COCC1(CC(C)C(=O)N2CCN(c3cc(F)c(Cl)c(F)c3)CC2)NC(=O)NC1=O` (stereo not drawn) [compound 448], the 50% inhibitory concentration (IC50) at human TACE came out at 2.99 µM; at human ADAMTS-5, 0.019 µM.
The corresponding values for `COC(CC1(C)NC(=O)NC1=O)C(=O)N1CCN(c2ccc(F)c(Cl)c2)[C@@H](C)C1` (stereo partly drawn) [compound 450, 5-(3-((S)-4-(3-chloro-4-fluorophenyl)-3-methylpiperazin-1-yl)-2-methoxy-3-oxopropyl)-5-methylimidazolidine-2,4-dione] are over 20 µM and 0.058 µM.
Turning to `C[C@H]1CN(C(=O)CCC2(c3cccnc3)NC(=O)NC2=O)CCN1c1ccc(Cl)c(Cl)c1` (stereo partly drawn) [compound 453, 5-[3-[(3S)-4-(3,4-dichlorophenyl)-3-methyl-piperazin-1-yl]-3-oxo-propyl]-5-(3-pyridyl)imidazolidine-2,4-dione], the half-maximal inhibitory concentration (IC50) on human TACE stood at 3.18 µM; at human ADAMTS-5, 0.036 µM.
As to `Cc1cccc(C2(CCC(=O)N3CCN(c4ccc(Cl)c(F)c4)[C@@H](C)C3)NC(=O)NC2=O)n1` (stereo partly drawn) [compound 454, 5-[3-[(3S)-4-(4-chloro-3-fluoro-phenyl)-3-methyl-piperazin-1-yl]-3-oxo-propyl]-5-(6-methyl-2-pyridyl)imidazolidine-2,4-dione], the figures for the half-inhibitory concentration (IC50) at human TACE and on human ADAMTS-5 were 2.98 µM and 0.035 µM, respectively.
With `Cc1cc(N2CCN(C(=O)C(C)CC3(C4CC4)NC(=O)NC3=O)C[C@@H]2C)ccc1F` (stereo partly drawn) [compound 456, 5-cyclopropyl-5-(3-((S)-4-(4-fluoro-3-methylphenyl)-3-methylpiperazin-1-yl)-2-methyl-3-oxopropyl)imidazolidine-2,4-dione], the IC50 was over 4 µM on human TACE and 0.027 µM on human ADAMTS-5.
The like results for `C[C@H]1CN(C(=O)CCC2(c3ccccn3)NC(=O)NC2=O)CCN1c1ccc(Cl)c(Cl)c1` (stereo partly drawn) [compound 458, 5-[3-[(3S)-4-(3,4-dichlorophenyl)-3-methyl-piperazin-1-yl]-3-oxo-propyl]-5-(2-pyridyl)imidazolidine-2,4-dione] were, in that order, 2.38 µM and 0.021 µM.
Regarding `C[C@H]1CN(C(=O)CCC2(c3ccccn3)NC(=O)NC2=O)CCN1c1cc(Cl)cc(Cl)c1` (stereo partly drawn) [compound 459, 5-[3-[(3S)-4-(3,5-dichlorophenyl)-3-methyl-piperazin-1-yl]-3-oxo-propyl]-5-(2-pyridyl)imidazolidine-2,4-dione], the concentration for half-maximal inhibition (IC50) was 1.74 µM on human TACE and 0.046 µM at human ADAMTS-5.
The corresponding values for `C[C@H]1CN(C(=O)CCC2(c3cnccn3)NC(=O)NC2=O)CCN1c1ccc(Cl)c(Cl)c1` (stereo partly drawn) [compound 460, 5-[3-[(3S)-4-(3,4-dichlorophenyl)-3-methyl-piperazin-1-yl]-3-oxo-propyl]-5-pyrazin-2-yl-imidazolidine-2,4-dione] are over 4 µM and 0.03 µM.
Consider `C[C@H]1CN(C(=O)CCC2(c3cnccn3)NC(=O)NC2=O)CCN1c1cc(Cl)cc(Cl)c1` (stereo partly drawn) [compound 461, 5-[3-[(3S)-4-(3,5-dichlorophenyl)-3-methyl-piperazin-1-yl]-3-oxo-propyl]-5-pyrazin-2-yl-imidazolidine-2,4-dione], for which the figures for the half-maximal inhibitory concentration (IC50) at human TACE and at human ADAMTS-5 were 2.54 µM and 0.039 µM, respectively.
With `C[C@H]1CN(C(=O)CCC2(c3ncccn3)NC(=O)NC2=O)CCN1c1ccc(Cl)c(Cl)c1` (stereo partly drawn) [compound 462, 5-[3-[(3S)-4-(3,4-dichlorophenyl)-3-methyl-piperazin-1-yl]-3-oxo-propyl]-5-pyrimidin-2-yl-imidazolidine-2,4-dione], the half-inhibitory concentration (IC50) on human TACE is over 4 µM; at human ADAMTS-5 it was 0.022 µM.
The corresponding values for `C[C@H]1CN(C(=O)CCC2(c3ncccn3)NC(=O)NC2=O)CCN1c1cc(F)cc(Cl)c1` (stereo partly drawn) [compound 463, 5-[3-[(3S)-4-(3-chloro-5-fluoro-phenyl)-3-methyl-piperazin-1-yl]-3-oxo-propyl]-5-pyrimidin-2-yl-imidazolidine-2,4-dione] are over 4 µM and 0.046 µM.
The like results for `Cc1ccc(C2(CCC(=O)N3CCN(c4ccc(Cl)c(Cl)c4)[C@@H](C)C3)NC(=O)NC2=O)cn1` (stereo partly drawn) [compound 464, 5-[3-[(3S)-4-(3,4-dichlorophenyl)-3-methyl-piperazin-1-yl]-3-oxo-propyl]-5-(6-methyl-3-pyridyl)imidazolidine-2,4-dione] were, in that order, over 4 µM and 0.026 µM.
On to `C[C@H]1CN(C(=O)CCC2(c3cocn3)NC(=O)NC2=O)CCN1c1cc(Cl)cc(Cl)c1` (stereo partly drawn) [compound 465, 5-[3-[(3S)-4-(3,5-dichlorophenyl)-3-methyl-piperazin-1-yl]-3-oxo-propyl]-5-oxazol-4-yl-imidazolidine-2,4-dione], for which the IC50 at human TACE was found to be 3.5 µM; on human ADAMTS-5 it was 0.062 µM.
The corresponding values for `C[C@H]1CN(C(=O)CCC2(c3cn(C)cn3)NC(=O)NC2=O)CCN1c1cc(Cl)cc(Cl)c1` (stereo partly drawn) [compound 466, 5-[3-[(3S)-4-(3,5-dichlorophenyl)-3-methyl-piperazin-1-yl]-3-oxo-propyl]-5-(1-methylimidazol-4-yl)imidazolidine-2,4-dione] are 2.64 µM and 0.055 µM.
For `C[C@H]1CN(C(=O)CCC2(c3cn(C)cn3)NC(=O)NC2=O)CCN1c1ccc(F)c(Cl)c1` (stereo partly drawn) [compound 467, 5-[3-[(3S)-4-(3-chloro-4-fluoro-phenyl)-3-methyl-piperazin-1-yl]-3-oxo-propyl]-5-(1-methylimidazol-4-yl)imidazolidine-2,4-dione], the IC50 on human TACE was over 4 µM; at human ADAMTS-5, 0.042 µM.
Consider `Cc1cc(N2CCN(C(=O)CC[C@@]3(C)NC(=O)NC3=O)C[C@@H]2C)cc(C)c1Cl` [compound 470, (5R)-5-[3-[(3S)-4-(4-chloro-3,5-dimethyl-phenyl)-3-methyl-piperazin-1-yl]-3-oxo-propyl]-5-methyl-imidazolidine-2,4-dione], for which the half-maximal inhibitory concentration (IC50) on human TACE amounted to 2.93 µM; at human ADAMTS-5, 0.383 µM.
Consider `C[C@H]1CN(C(=O)CC[C@@]2(C)NC(=O)NC2=O)CCN1c1ccc(Cl)c(C(F)(F)F)c1` [compound 472, (5R)-5-[3-[(3S)-4-[4-chloro-3-(trifluoromethyl)phenyl]-3-methyl-piperazin-1-yl]-3-oxo-propyl]-5-methyl-imidazolidine-2,4-dione], for which the IC50 is over 4 µM at human TACE and 0.899 µM at human ADAMTS-5.
